In patent publication US20120122820A1, “PRODRUGS AND THE USE THEREOF” (Bayer Schering Pharma Aktiengesellschaft, priority 2007, published 2012):
≈ marks a conversion by molar mass, not a printed value. Where a name gives a salt, the structure may show the parent alone.

Assays:
[1] = Stability in buffer at various pH values; format: physicochemical
Description: 0.3 mg of the test substance is weighed into a 2 ml HPLC vial and 0.5 ml of acetonitrile or acetonitrile/DMSO (9:1) is added. The substance is dissolved by putting the sample vessel in an ultrasonic bath for about 10 seconds. Then 0.5 ml of the respective (buffer) solution is added, and the sample is again treated in the ultrasonic bath.
• pH 4: 1 liter of Millipore water is adjusted to pH 4.0 with 1 N hydrochloric acid; • pH 5: 0.096 mol of citric acid and 0.2 mol of sodium hydroxide ad 1 liter of water; • pH 7.4: 90.0 g of sodium chloride, 13.61 g of potassium dihydrogen phosphate and 83.35 g of 1 N sodium hydroxide solution are made up to 1 liter with water; this solution is then further diluted 1:10 with Millipore water. • pH 8: 0.013 mol of borax and 0.021 mol of hydrochloric acid ad 1 liter of water.
5 μl portions of the sample solution are analyzed by HPLC for their content of unchanged test substance, and of parent substance (A) produced, every hour over a period of 24 hours at 37° C. The percentage areas of the appropriate peaks are used for quantification.
HPLC method for Examples 1-21:
Agilent 1100 with DAD (G1314A), binary pump (G1312A), autosampler (G1329A), column oven (G1316A), thermostat (G1330A); column: Kromasil 100 C18, 60 mm×2.1 mm, 3.5 μm; column temperature: 30° C.; eluent A: water+5 ml of perchloric acid/liter, eluent B: acetonitrile; gradient: 0-1.0 min 98% A, 2% B; 1.0-9.0 min 2% A, 98% B; 9.0-13.0 min 2% A, 98% B; 13.0-13.5 min 98% A, 2% B; 13.5-15.0 min 98% A, 2% B; flow rate: 0.75 ml/min; UV detection: 210 nm.
HPLC method for Examples 22-40:
The ratios of the peak areas (F) at the respective time points in relation to the peak areas at the starting time are shown in Table 3 for representative exemplary embodiments: […]

[2] = system: heart rate of anesthetized rats; assay: Influence on the heart rate of anesthetized rats; format: in vivo; conditions: maximum decrease in the first 30 min after i.v. bolus of 100 μg/kg of (A) or equivalent dosages; anesthetized male Wistar rats
Description: Male Wistar rats with a body weight above 250 g are employed. In the night before the experiment, the animals receive no feed but still have free access to drinking water. Preparation and investigations are carried out under Trapanal® anesthesia (100 mg/kg i.p.). Injection and infusion take place through a catheter in the jugular vein, and the blood pressure is recorded via a catheter in the femoral artery (transducer: Braun, Melsungen). After the preparation, the animals are connected to a continuous infusion of physiological saline solution to compensate fluid losses. Test substance or placebo solution are administered intravenously as bolus after an equilibration time of about 1 h. Heart rate and arterial blood pressure are recorded during the equilibration and over a period of at least 30 min after the bolus injection with the aid of a digital evaluation program.
Table 5 lists the maximum heart rate decrease in the first 30 min after an i.v. bolus of 100 μg/kg of the active substance (A) or of equivalent dosages of representative exemplary embodiments: […]

[3] = i.v. pharmacokinetics in Wistar rats; format: in vivo; conditions: after i.v. bolus administration, male Wistar rats
Description: (§1) On the day before administration of the substance, a catheter for obtaining blood is implanted in the jugular vein of the experimental animals (male Wistar rats, body weight 200-250 g) under Isofluran® anesthesia.
(§2) On the day of the experiment, a defined dose of the test substance is administered as solution into the tail vein using a Hamilton® glass syringe (bolus administration, duration of administration <10 s). Blood samples (8-12 time points) are taken through the catheter sequentially over the course of 24 h after administration of the substance. Plasma is obtained by centrifuging the samples in heparinized tubes. Acetonitrile is added to a defined plasma volume per time point to precipitate proteins. After centrifugation, test substance and, where appropriate, known cleavage products of the test substance in the supernatant are determined quantitatively using a suitable LC/MS-MS method.
The measured plasma concentrations are used to calculate pharmacokinetic parameters of the test substance and of the active ingredient compound (A) liberated therefrom, such as AUC, Cmax, T1/2 (half-life) and CL (clearance).

[4] = Oral pharmacokinetics in Wistar rats; format: in vivo; conditions: after oral administration (gavage), male Wistar rats
Description: as §1
as §2, with “stomach by gavage.” for “tail vein using a Hamilton® glass syringe (bolus administration, duration of administration <10 s).”
The measured plasma concentrations are used to calculate pharmacokinetic parameters of the test substance and of the active ingredient compound (A) liberated therefrom, such as AUC, Cmax, T1/2 (half-life).

[5] = Determination of the solubility (24 h shaking at room temperature, ultracentrifugation, HPLC); format: physicochemical; conditions: thermodynamic from solid
Description: The test substance is suspended in water or dilute hydrochloric acid (pH 4) [Examples 1-21] or in 5% strength aqueous dextrose solution [Examples 22-40]. This suspension is shaken at room temperature for 24 h. After ultracentrifugation at 224 000 g for 30 min, the supernatant is diluted with DMSO and analyzed by HPLC. A two-point calibration plot of the test compound in DMSO is used for quantification.
Agilent 1100 with DAD (G1315A), quat. pump (G1311A), autosampler CTC HTS PAL, degasser (G1322A) and column thermostat (G1316A); column: Phenomenex Gemini C18, 5 μm, 50 mm×2 mm; temperature: 40° C.; eluent A: water/phosphoric acid pH 2, eluent B: acetonitrile; flow rate: 0.7 ml/min; gradient: 0-0.5 min 85% A, 15% B; ramp 0.5-3 min 10% A, 90% B; 3-3.5 min 10% A, 90% B; ramp 3.5-4 min 85% A, 15% B; 4-5 min 85% A, 15% B.
Agilent 1100 with DAD (G1315A), quat. pump (G1311A), autosampler CTC HTS PAL, degasser (G1322A) and column thermostat (G1316A); column: VDSoptilab Kromasil 100 C18, 3.5 μm, 60 mm×2.1 mm; temperature: 30° C.; eluent A: water+5 ml of perchloric acid/liter, eluent B: acetonitrile; flow rate: 0.75 ml/min; gradient: 0-0.5 min 98% A, 2% B; ramp 0.5-4.5 min 10% A, 90% B; 4.5-6 min 10% A, 90% B; ramp 6.5-6.7 min 98% A, 2% B; 6.7-7.5 min 98% A, 2% B.

[6] = aqueous buffer, dilute hydrochloric acid (pH 4)
[7] = saline or isotonic, 5% strength aqueous dextrose solution

SMILES | % test substance after 4 h [F(t = 4 h) × 100/F(t = 0 h)] ([1]; pH 4, 37° C.) [%] | % test substance after 24 h [F(t = 24 h) × 100/F(t = 0 h)] ([1]; pH 4, 37° C.) [%] | % test substance after 4 h [F(t = 4 h) × 100/F(t = 0 h)] ([1]; pH 8, 37° C.) [%] | % test substance after 24 h [F(t = 24 h) × 100/F(t = 0 h)] ([1]; pH 8, 37° C.) [%] | Heart rate decrease [2] [%] | Detectability of the test substance (prodrug) in plasma [3] | Detectability of the test substance (prodrug) in plasma [4] | solubility at 24 h [5, 6] [µg/mL] | % test substance after 4 h [F(t = 4 h) × 100/F(t = 0 h)] ([1]; pH 7.4, 37° C.) [%] | % test substance after 24 h [F(t = 24 h) × 100/F(t = 0 h)] ([1]; pH 7.4, 37° C.) [%] | solubility at 24 h [5, 7] [µg/mL]
N#Cc1c(N)nc(SCc2csc(-c3ccc(Cl)cc3)n2)c(C#N)c1-c1ccc(OCCOP(=O)(O)O)cc1 [Example 1, 2-{4-[2-Amino-6-({[2-(4-chlorophenyl)-1,3-thiazol-4-yl]methyl}thio)-3,5-dicyanopyridin-4-yl]-phenoxy}ethyl dihydrogenphosphate] | 100 | 100 | 100 | 100 | 16 | no longer detectable in plasma even at the first measurement point |  |  |  |  | 
N#Cc1c(N)nc(SCc2csc(-c3ccc(Cl)cc3)n2)c(C#N)c1-c1ccc(OCCOC(=O)CN)cc1 [Example 5, 2-{4-[2-Amino-6-({[2-(4-chlorophenyl)-1,3-thiazol-4-yl]methyl}thio)-3,5-dicyanopyridin-4-yl]-phenoxy}ethyl glycinate] | 100 | 100 | 94 | 68 | 21 | no longer detectable in plasma even at the first measurement point | no longer detectable in plasma even at the first measurement point |  |  |  | 
N#Cc1c(N)nc(SCc2csc(-c3ccc(Cl)cc3)n2)c(C#N)c1-c1ccc(OCCOC(=O)CCC(=O)O)cc1 [Example 19, 4-(2-{4-[2-Amino-6-({[2-(4-chlorophenyl)-1,3-thiazol-4-yl]methyl}thio)-3,5-dicyanopyridin-4-yl]-phenoxy}ethoxy)-4-oxobutanoic acid hydrochloride] |  |  |  |  | 18 |  | no longer detectable in plasma even at the first measurement point | 57 |  |  | 
N#Cc1c(NC(=O)CCN)nc(SCc2csc(-c3ccc(Cl)cc3)n2)c(C#N)c1-c1ccc(OCCOC(=O)CCN)cc1 [Example 26, 2-{4-[2-(beta-Alanylamino)-6-({[2-(4-chlorophenyl)-1,3-thiazol-4-yl]methyl}thio)-3,5-dicyano-pyridin-4-yl]phenoxy}ethyl beta-alaninate dihydrochloride] | 100 | 100 |  |  |  |  |  |  | 11 | 2 | > 500
CC(C)[C@H](N)C(=O)OCCOc1ccc(-c2c(C#N)c(NC(=O)CCCN(C)C)nc(SCc3csc(-c4ccc(Cl)cc4)n3)c2C#N)cc1 [Example 37, 2-{4-[2-({[2-(4-Chlorophenyl)-1,3-thiazol-4-yl]methyl}thio)-3,5-dicyano-6-{[4-(dimethylamino)-butanoyl]amino}pyridin-4-yl]phenoxy}ethyl L-valinate bistrifluoracetate] | 100 | 100 |  |  |  |  |  |  | 97 | 84 | 160 (≈ 218 µM)
N#Cc1c(N)nc(SCc2csc(-c3ccc(Cl)cc3)n2)c(C#N)c1-c1ccc(OCCOC(=O)[C@@H](N)CCCNC(=N)N)cc1 [Example 38, 2-{4-[2-Amino-6-({[2-(4-chlorophenyl)-1,3-thiazol-4-yl]methyl}sulfanyl)-3,5-dicyanopyridin-4-yl]-phenoxy}ethyl L-argininate trihydrochloride] | 100 | 100 |  |  |  |  |  |  | 100 | 94 | > 500
N#Cc1c(N)nc(SCc2csc(-c3ccc(Cl)cc3)n2)c(C#N)c1-c1ccc(OCCOC(=O)[C@H](N)CCCN)cc1 [Example 39, 2-{4-[2-Amino-6-({[2-(4-chlorophenyl)-1,3-thiazol-4-yl]methyl}sulfanyl)-3,5-dicyanopyridin-4-yl]-phenoxy}ethyl D-ornithinate dihydrochloride] | 100 | 100 |  |  |  |  |  |  | 0 | 0 | > 500
N#Cc1c(N)nc(SCc2csc(-c3ccc(Cl)cc3)n2)c(C#N)c1-c1ccc(OCCOC(=O)[C@@H](N)CN)cc1 [Example 40, 2-{4-[2-Amino-6-({[2-(4-chlorophenyl)-1,3-thiazol-4-yl]methyl}sulfanyl)-3,5-dicyanopyridin-4-yl]-phenoxy}ethyl-3-amino L-alaninate dihydrochloride] | 99 | 94 |  |  |  |  |  |  | 90 | 53 | > 500
N#Cc1c(N)nc(SCc2csc(-c3ccc(Cl)cc3)n2)c(C#N)c1-c1ccc(OCCO)cc1 [compound (A), 2-amino-6-({[2-(4-chlorophenyl)-1,3-thiazol-4-yl]methyl}thio)-4-[4-(2-hydroxy-ethoxy)phenyl]pyridine-3,5-dicarbonitrile, reference compound] |  |  |  |  | 24 |  |  | < 1 |  |  | < 0.1
